Data published in patent US5137811A, “Method for diagnosing periodontal diseases with a substrate specific for aminopeptidase activity of periodontopathic bacteria” (Sunstar Kabushiki Kaisha, priority 1986, dated 1992).
Where a SMILES comes first, the peptide text is derived from it. The star is where a group is joined. βNA = c1ccc2cc(N*)ccc2c1; Cbz = O=C(OCc1ccccc1)*

How the values were obtained:
[1] = tested on: Actinobacillus actinomycetemcomitans; assay: Hydrolytic activity of oral anaerobe cell suspension on aminopeptidase substrates (Experiment 1); format: cell-based; details: four strains, substrate 0.2 mM, pH 7.0, 37° C., 60 minutes, Table 1
Description: (§1) Oral anaerobes, i.e., four strains of Treponema denticola, five strains of B. gingivalis, four strains of Actinobacillus actinomycetemcomitans, four strains of Capnocytophaga sp. and three strains of Fusobacterium nucleatum were tested for hydrolytic activity to the substrate of aminopeptidase enzyme as follows.
(§2) The strains of Treponema were anaerobically cultivated using TYGVS media at 37° C. for 7 days, while other bacterial strains were cultivated using brain heart infusion broth at 37° C. for 48 to 72 hours. Each culture was diluted to obtain a bacterial cell suspension, the absorption at 660 nm of which was 1.0.
(§3) Substrate compounds for aminopeptidase enzyme having various color developing groups derived from β-naphthylamine were dissolved in 0.1M Tris-HCl buffer (pH 7.0) at the concentration of 0.2 mM to obtain substrate solutions.
(§4) To the substrate solution (1.5 ml) was added the above cell suspension (0.3 ml) and reacted at 37° C. for 60 minutes. After completion of the reaction, a coloring reagent [prepared by dissolving diazonium salt of Garnet GBC in 1M acetate buffer (containing 10% Tween 20, pH: 4.2) at the concentration of 0.5 mg/ml] was added and, after 15 minutes, the absorption at 525 nm was determined with a spectrophotometer.
(§5) On the basis of the average amount of released β-naphthylamine in each strain, the hydrolytic activity was expressed as follows: […]

Bacteroides gingivalis = assay: as above; format: cell-based; details: five strains, substrate 0.2 mM, pH 7.0, 37° C., 60 minutes, Table 1
Description: as §1, §2, §3, §4, §5

Capnocytophaga sp. = assay: as above; format: cell-based; details: four strains, substrate 0.2 mM, pH 7.0, 37° C., 60 minutes, Table 1
Description: as §1, §2, §3, §4, §5

Fusobacterium nucleatum [2] = assay: as above; format: cell-based; details: three strains, substrate 0.2 mM, pH 7.0, 37° C., 60 minutes, Table 1
Description: as §1, §2, §3, §4, §5

Treponema denticola [3] = assay: as above; format: cell-based; details: four strains, substrate 0.2 mM, pH 7.0, 37° C., 60 minutes, Table 1
Description: as §1, §2, §3, §4, §5

[4] = tested on: Actinobacillus actinomycetemcomitans; assay: Hydrolytic activity of cell suspension on aminopeptidase substrates (Experiment 2); format: cell-based; details: four strains, Table 2
Description: as §2, §3, §4, §5
(§6) According to the same manner as described in Experiment 1, periodontopathic bacteria specific aminopeptidase activity was tested by using four strains of Treponema denticola, five strains of B. gingivalis, three strains of B. intermedius, two strains of B. melaninogenicus, two strains of Actinomyces israelli, four strains of Actinobacillus actinomycetemcomitans and three strains of Fusobacterium nucleatum. Abbreviations used in Table 2 mean the following substrate compounds.

Actinomyces israelli = assay: as above; format: cell-based; details: two strains, Table 2
Description: as §2, §3, §4, §5, §6

B. corporis = assay: as above; format: cell-based; details: Table 2
Description: as §2, §3, §4, §5, §6

B. denticola = assay: as above; format: cell-based; details: Table 2
Description: as §2, §3, §4, §5, §6

B. gingivalis = assay: as above; format: cell-based; details: five strains, Table 2
Description: as §2, §3, §4, §5, §6

B. intermedius = assay: as above; format: cell-based; details: three strains, Table 2
Description: as §2, §3, §4, §5, §6

B. melaninogenicus = assay: as above; format: cell-based; details: two strains, Table 2
Description: as §2, §3, §4, §5, §6

Fusobacterium nucleatum [5] = assay: as above; format: cell-based; details: three strains, Table 2
Description: as §2, §3, §4, §5, §6

Treponema denticola [6] = assay: as above; format: cell-based; details: four strains, Table 2
Description: as §2, §3, §4, §5, §6

[7] = tested on: periodontopathic bacteria specific aminopeptidase activity; assay: Hydrolytic activity of gingival crevicular fluid specimens, visually evaluated (Experiment 5); format: biochemical; parameters: key: -: orange; +: dark orange; ++: brown; +++: dark brown
Description: as §3, §4
Specimens of gingival crevicular fluid were collected with paper points from five subjects who were considered to be healthy from their clinical state, six subjects with gingivitis and six subjects with periodontitis. Each specimen was dispersed in Ringer's solution (1.5 ml), and the relative amount of spirochete to total bacteria: [formula] was determined with a phase contrast microscope. Further, the Ringer's solution (0.3 ml) was tested for hydrolytic activity using the substrate solution prepared in the same manner as described in Experiment 1. As substrates, there were used compounds of the formula [1], i.e., N-benzoylvalyl-glycyl-arginine-β-naphthylamide (BzVGR) and N-carbobenzoxy-valyl-glycyl-arginine-β-naphthylamide (CxVGR) were used.
In table 4, hydrolytic activity was visually evaluated and expressed as follows: […]
According to the same manner as described in Experiment 4, hydrolytic activity was tested by using the compounds of the formula [2], i.e., lysyl-proline-β-naphthylamide (KP) and N-carbobenzoxy-prolyl-alanyl-glycylproline-β-naphthylamide (CxPAGP) as the substrates.

Compound	hydrolytic activity (average amount of released β-naphthylamine) [1]	hydrolytic activity (average amount of released β-naphthylamine) (Bacteroides gingivalis)	hydrolytic activity (average amount of released β-naphthylamine) (Capnocytophaga sp.)	hydrolytic activity (average amount of released β-naphthylamine) (Fusobacterium nucleatum [2])	hydrolytic activity (average amount of released β-naphthylamine) (Treponema denticola [3])	hydrolytic activity (average amount of released β-naphthylamine) [4]	hydrolytic activity (average amount of released β-naphthylamine) (Actinomyces israelli)	hydrolytic activity (average amount of released β-naphthylamine) (B. corporis)	hydrolytic activity (average amount of released β-naphthylamine) (B. denticola)	hydrolytic activity (average amount of released β-naphthylamine) (B. gingivalis)	hydrolytic activity (average amount of released β-naphthylamine) (B. intermedius)	hydrolytic activity (average amount of released β-naphthylamine) (B. melaninogenicus)	hydrolytic activity (average amount of released β-naphthylamine) (Fusobacterium nucleatum [5])	hydrolytic activity (average amount of released β-naphthylamine) (Treponema denticola [6])	further results
NCC(=O)Nc1ccc2ccccc2c1 [G, glycine-β-naphthylamide, reference compound]	- (release amount<5 nmol/ml)	- (release amount<5 nmol/ml)	+ (10 ≤release amount<20 nmol/ml)	- (release amount<5 nmol/ml)	- (release amount<5 nmol/ml)	- (release amount<5 nmol/ml)	- (release amount<5 nmol/ml)	- (release amount<5 nmol/ml)	- (release amount<5 nmol/ml)	- (release amount<5 nmol/ml)	- (release amount<5 nmol/ml)	- (release amount<5 nmol/ml)	- (release amount<5 nmol/ml)	- (release amount<5 nmol/ml)	
N=C(N)NCCC[C@H](N)C(=O)Nc1ccc2ccccc2c1 [R, arginine-β-naphthylamide, reference compound]	- (release amount<5 nmol/ml)	- (release amount<5 nmol/ml)	+++ (release amount≥40 nmol/ml)	- (release amount<5 nmol/ml)	- (release amount<5 nmol/ml)	- (release amount<5 nmol/ml)	- (release amount<5 nmol/ml)	- (release amount<5 nmol/ml)	- (release amount<5 nmol/ml)	- (release amount<5 nmol/ml)	- (release amount<5 nmol/ml)	- (release amount<5 nmol/ml)	- (release amount<5 nmol/ml)	- (release amount<5 nmol/ml)	
C[C@H](NC(=O)[C@@H]1CCCN1C(=O)OCc1ccccc1)C(=O)NCC(=O)N1CCC[C@H]1C(=O)Nc1ccc2ccccc2c1 [CxPAGP, N-carbobenzoxy-prolyl-alanyl-glycyl-proline-β-naphthylamide] (Cbz-PAGP-βNA)						- (release amount<5 nmol/ml)	- (release amount<5 nmol/ml)	++ (20 ≤release amount<40 nmol/ml)	+++ (release amount≥40 nmol/ml)	+ (10 ≤release amount<20 nmol/ml)	+++ (release amount≥40 nmol/ml)	+++ (release amount≥40 nmol/ml)	- (release amount<5 nmol/ml)	+++ (release amount≥40 nmol/ml)	hydrolytic activity, visually evaluated ([7]; Gingivitis subject 1 (spirochete 7.3 %)): +; hydrolytic activity, visually evaluated ([7]; Gingivitis subject 2 (spirochete 16.7 %)): +; hydrolytic activity, visually evaluated ([7]; Gingivitis subject 3 (spirochete 20.5 %)): ++; hydrolytic activity, visually evaluated ([7]; Gingivitis subject 4 (spirochete 6.8 %)): -; hydrolytic activity, visually evaluated ([7]; Gingivitis subject 5 (spirochete 7.3 %)): -; hydrolytic activity, visually evaluated ([7]; Gingivitis subject 6 (spirochete 14.4 %)): +; hydrolytic activity, visually evaluated ([7]; Healthy subject 1 (spirochete 0.1 %)): -; hydrolytic activity, visually evaluated ([7]; Healthy subject 2 (spirochete 2.5 %)): +; hydrolytic activity, visually evaluated ([7]; Healthy subject 3 (spirochete 1.1 %)): -; hydrolytic activity, visually evaluated ([7]; Healthy subject 4 (spirochete 0.6 %)): -; hydrolytic activity, visually evaluated ([7]; Healthy subject 5 (spirochete 1.3 %)): -; hydrolytic activity, visually evaluated ([7]; Periodontitis subject 1 (spirochete 45.2 %)): +++; hydrolytic activity, visually evaluated ([7]; Periodontitis subject 2 (spirochete 30.3 %)): +++; hydrolytic activity, visually evaluated ([7]; Periodontitis subject 3 (spirochete 34.6 %)): +++; hydrolytic activity, visually evaluated ([7]; Periodontitis subject 4 (spirochete 21.2 %)): +++; hydrolytic activity, visually evaluated ([7]; Periodontitis subject 5 (spirochete 40.3 %)): +++; hydrolytic activity, visually evaluated ([7]; Periodontitis subject 6 (spirochete 35.1 %)): +++
C[C@H](N)C(=O)Nc1ccc2ccccc2c1 [A, alanine-β-naphthylamide, reference compound]	- (release amount<5 nmol/ml)	- (release amount<5 nmol/ml)	+++ (release amount≥40 nmol/ml)	- (release amount<5 nmol/ml)	- (release amount<5 nmol/ml)	- (release amount<5 nmol/ml)	- (release amount<5 nmol/ml)	- (release amount<5 nmol/ml)	- (release amount<5 nmol/ml)	- (release amount<5 nmol/ml)	- (release amount<5 nmol/ml)	- (release amount<5 nmol/ml)	- (release amount<5 nmol/ml)	- (release amount<5 nmol/ml)	
NCCCC[C@H](N)C(=O)Nc1ccc2ccccc2c1 [K, lysine-β-naphthylamide, reference compound]	- (release amount<5 nmol/ml)	- (release amount<5 nmol/ml)	+++ (release amount≥40 nmol/ml)	- (release amount<5 nmol/ml)	- (release amount<5 nmol/ml)	- (release amount<5 nmol/ml)	- (release amount<5 nmol/ml)	- (release amount<5 nmol/ml)	- (release amount<5 nmol/ml)	- (release amount<5 nmol/ml)	- (release amount<5 nmol/ml)	- (release amount<5 nmol/ml)	- (release amount<5 nmol/ml)	- (release amount<5 nmol/ml)	
